This note sets out measurements from the supplement of paper PMC10307832.

What all share (assay): relative viability (nuclei count vs DMSO), 5 days (fraction); higher = more cells survive
Compound in experiment [1]: CC1=C(C(=O)N2C=CSC2=N1)CCN3CCC(=C(C4=CC=CC=C4)C5=CC=C(C=C5)F)CC3 + CS(=O)(=O)N1CCN(Cc2cc3nc(-c4cccc5[nH]ncc45)nc(N4CCOCC4)c3s2)CC1 [Pictilisib] (partner 1 µM)
An outline of the steps:
(§1)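 For relative viability, nuclei counts in treated wells were divided by those in vehicle wells. Lung cancer cell lines had been pin-tool dosed in 1536-well plates the day after seeding and cultured for 5 days, then fixed and stained in one step (final 0.05% Triton X-100, 1% formaldehyde, 1 ug/ml Hoechst) and imaged at 4×. Doses were one drug alone or a fixed anchor-drug dose plus five library-drug doses (not always all listed) in √10 steps, and values are duplicate-plate medians.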

Compound in experiment [2]: CC1=C(C(=O)N2C=CSC2=N1)CCN3CCC(=C(C4=CC=CC=C4)C5=CC=C(C=C5)F)CC3 + COc1cc2c(Oc3ccc(NC(=O)C4(C(=O)Nc5ccc(F)cc5)CC4)cc3F)ccnc2cc1OCCCN1CCOCC1 [Foretinib] (partner 0.25 µM)
In a few lines: as §1

Compound in experiment [3]: CC1=C(C(=O)N2C=CSC2=N1)CCN3CCC(=C(C4=CC=CC=C4)C5=CC=C(C=C5)F)CC3 + O=C(CCCCCCC(=O)Nc1ccccc1)NO [Vorinostat] (partner 1 µM)
In a few lines: as §1

Compound in experiment [4]: CC1=C(C(=O)N2C=CSC2=N1)CCN3CCC(=C(C4=CC=CC=C4)C5=CC=C(C=C5)F)CC3 + NC(=O)Nc1cc(-c2cccc(F)c2)sc1C(=O)N[C@H]1CCCNC1 [AZD7762] (partner 0.2 µM)
An outline of the steps:
as §1

For the cell line COR-L 105, the relative viability was determined as 0.349 in experiment [1] (first compound 0.08 µM); 0.392 in experiment [1] (first compound 0.253 µM); 0.376 in experiment [1] (first compound 0.8 µM); 0.436 in experiment [1] (first compound 2.53 µM); 0.403 in experiment [1] (first compound 8 µM); 0.574 in experiment [2] (first compound 0.08 µM). The relative viability in experiment [2] (first compound 0.253 µM) amounted to 1.05; in experiment [2] (first compound 0.8 µM), 1.02; in experiment [2] (first compound 2.53 µM), 1.56; in experiment [2] (first compound 8 µM) it was 0.761; in experiment [3] (first compound 0.08 µM) it was 0.58; in experiment [3] (first compound 0.253 µM), 0.738. The relative viability in experiment [3] (first compound 0.8 µM) stood at 0.882; in experiment [3] (first compound 2.53 µM), 1.29; in experiment [3] (first compound 8 µM), 0.607.
For the cell line CAL-12T, the relative viability in experiment [1] (first compound 0.253 µM) was 0.445; in experiment [1] (first compound 0.8 µM), 0.411; in experiment [1] (first compound 2.53 µM), 0.42; in experiment [1] (first compound 8 µM), 0.387; in experiment [4] (first compound 0.08 µM), 0.605; in experiment [4] (first compound 0.253 µM), 0.751. Also, the relative viability in experiment [4] (first compound 0.8 µM) worked out at 0.576; in experiment [4] (first compound 2.53 µM) it was 0.699; in experiment [4] (first compound 8 µM) it was 0.503; in experiment [2] (first compound 0.08 µM) it was 1.17; in experiment [2] (first compound 0.253 µM), 1.04; in experiment [2] (first compound 0.8 µM), 1.29. Further, the relative viability came to 1.23 in experiment [2] (first compound 2.53 µM); 0.691 in experiment [2] (first compound 8 µM); 0.566 in experiment [3] (first compound 0.08 µM); 0.728 in experiment [3] (first compound 0.253 µM); 0.727 in experiment [3] (first compound 0.8 µM); 0.957 in experiment [3] (first compound 2.53 µM). Moreover, the relative viability in experiment [3] (first compound 8 µM) was 0.513.
On to NCI-H2405, for which the relative viability in experiment [1] (first compound 0.08 µM) came out at 0.426; in experiment [1] (first compound 0.253 µM), 0.432; in experiment [1] (first compound 0.8 µM), 0.481; in experiment [1] (first compound 2.53 µM), 0.531; in experiment [1] (first compound 8 µM) it was 0.347; in experiment [4] (first compound 0.08 µM) it was 0.901. The relative viability in experiment [4] (first compound 0.8 µM) was 0.725; in experiment [4] (first compound 2.53 µM), 0.74; in experiment [4] (first compound 8 µM), 0.55; in experiment [2] (first compound 0.08 µM) it was 1.08; in experiment [2] (first compound 0.253 µM) it was 1.03; in experiment [2] (first compound 0.8 µM) it was 1.09. Moreover, the relative viability is 1.04 in experiment [2] (first compound 2.53 µM); 0.969 in experiment [2] (first compound 8 µM); 1.18 in experiment [3] (first compound 0.08 µM); 1.08 in experiment [3] (first compound 0.8 µM); 1.06 in experiment [3] (first compound 2.53 µM); 0.789 in experiment [3] (first compound 8 µM).
With NCI-H1395, the relative viability in experiment [1] (first compound 0.08 µM) was determined as 0.772; in experiment [1] (first compound 0.253 µM), 0.641; in experiment [1] (first compound 0.8 µM), 0.531; in experiment [1] (first compound 2.53 µM), 0.572; in experiment [1] (first compound 8 µM) it was 0.629; in experiment [4] (first compound 0.08 µM) it was 0.384. The relative viability in experiment [4] (first compound 0.253 µM) came out at 0.457; in experiment [4] (first compound 0.8 µM), 0.391; in experiment [4] (first compound 2.53 µM) it was 0.419; in experiment [4] (first compound 8 µM) it was 0.383; in experiment [2] (first compound 0.08 µM), 1.07; in experiment [2] (first compound 0.253 µM), 1.08. Also, the relative viability stood at 0.972 in experiment [2] (first compound 0.8 µM); 0.97 in experiment [2] (first compound 2.53 µM); 1.06 in experiment [2] (first compound 8 µM); 0.714 in experiment [3] (first compound 0.08 µM); 0.786 in experiment [3] (first compound 0.253 µM); 0.525 in experiment [3] (first compound 0.8 µM). The results for the relative viability in experiment [3] (first compound 2.53 µM) and in experiment [3] (first compound 8 µM) were 0.691 and 0.646, respectively.
Turning to NCI-H1648, the relative viability in experiment [4] (first compound 0.08 µM) was 0.722; in experiment [4] (first compound 0.253 µM) it was 0.628; in experiment [4] (first compound 0.8 µM), 0.727; in experiment [4] (first compound 2.53 µM), 0.667; in experiment [4] (first compound 8 µM), 0.443; in experiment [3] (first compound 0.08 µM), 0.26. Further, the relative viability in experiment [3] (first compound 0.253 µM) turned out to be 0.36; in experiment [3] (first compound 0.8 µM), 0.603; in experiment [3] (first compound 2.53 µM) it was 0.4; in experiment [3] (first compound 8 µM), 0.338.
For PC-14, the relative viability in experiment [1] (first compound 0.08 µM) was 0.604; in experiment [1] (first compound 0.253 µM), 0.617; in experiment [1] (first compound 0.8 µM) it was 0.708; in experiment [1] (first compound 2.53 µM), 0.93; in experiment [1] (first compound 8 µM), 0.399; in experiment [4] (first compound 0.08 µM), 0.373. Besides, the relative viability was 0.312 in experiment [4] (first compound 0.253 µM); 0.369 in experiment [4] (first compound 0.8 µM); 0.371 in experiment [4] (first compound 2.53 µM); 0.246 in experiment [4] (first compound 8 µM); 0.783 in experiment [2] (first compound 0.08 µM); 0.999 in experiment [2] (first compound 0.253 µM). Further, the relative viability in experiment [2] (first compound 0.8 µM) was found to be 1; in experiment [2] (first compound 2.53 µM), 0.828; in experiment [2] (first compound 8 µM), 0.783; in experiment [3] (first compound 0.08 µM) it was 0.677; in experiment [3] (first compound 0.253 µM), 0.901; in experiment [3] (first compound 0.8 µM) it was 0.866. The relative viability was 0.762 in experiment [3] (first compound 2.53 µM) and 0.623 in experiment [3] (first compound 8 µM).
For A549, the relative viability in experiment [1] (first compound 0.08 µM) is 0.643; in experiment [1] (first compound 0.253 µM) it was 0.434; in experiment [1] (first compound 0.8 µM), 0.467; in experiment [1] (first compound 2.53 µM), 0.567; in experiment [1] (first compound 8 µM), 0.422; in experiment [2] (first compound 0.08 µM), 0.954. Further, the relative viability in experiment [2] (first compound 0.253 µM) turned out to be 0.982; in experiment [2] (first compound 0.8 µM) it was 1.03; in experiment [2] (first compound 2.53 µM), 0.97; in experiment [2] (first compound 8 µM), 0.763.
On to LOU-NH91, for which the relative viability in experiment [1] (first compound 0.08 µM) was determined as 0.561; in experiment [1] (first compound 0.253 µM), 0.503; in experiment [1] (first compound 0.8 µM) it was 0.545; in experiment [1] (first compound 2.53 µM), 0.55; in experiment [1] (first compound 8 µM), 0.527; in experiment [4] (first compound 0.08 µM), 0.763. In addition, the relative viability was 0.714 in experiment [4] (first compound 0.253 µM); 0.833 in experiment [4] (first compound 0.8 µM); 0.84 in experiment [4] (first compound 2.53 µM); 0.691 in experiment [4] (first compound 8 µM); 0.91 in experiment [2] (first compound 0.08 µM); 0.926 in experiment [2] (first compound 0.253 µM). For the same cell line, the relative viability was found to be 1.03 in experiment [2] (first compound 0.8 µM); 0.942 in experiment [2] (first compound 2.53 µM); 0.906 in experiment [2] (first compound 8 µM); 0.973 in experiment [3] (first compound 0.08 µM); 0.832 in experiment [3] (first compound 0.253 µM); 0.856 in experiment [3] (first compound 0.8 µM). Also, the relative viability was 0.948 in experiment [3] (first compound 2.53 µM) and 0.776 in experiment [3] (first compound 8 µM).
